Our source for the IC50 values is the supplement of paper PMC3493320.

The experiment deals with NCI-H295R. Description: IC50 (antiproliferative, ATP content). The following applies: 48 h. In short, it runs like this:
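Cell viability of adrenocortical carcinoma cells was assessed as ATP by CellTiter-Glo luminescence. Cells at 1500 per well in 1536-well plates, in serum-free DMEM with ITS, received compounds by pin transfer at 8 final concentrations (0.6 nM–46 µM) after overnight culture and were then held 48 h at 37 °C, 5% CO2. IC50 was calculated by logistic fitting against vehicle and positive-control wells, compounds with no concentration response being recorded as above the top dose.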
Consider `CN(CCO)CC(O)Cn1cnc2c1c(=O)n(C)c(=O)n2C.O=C(O)c1cccnc1` (stereo unspecified), for which the IC50 was more than 46 µM.
For `CC(C)[C@@H]1CC[C@@H](C)C[C@H]1O` the value was more than 46 µM; for `NCCc1cc[nH]n1`, more than 46 µM.
For `O=C1c2ccccc2CN2C(=O)c3ccccc3CN12` the value was more than 46 µM; for `CC(CN1c2ccccc2Sc2ccccc21)N(C)C` (stereo unspecified), more than 46 µM; for `CCOc1ccc2ccccc2c1C(=O)N[C@@H]1C(=O)N2[C@@H]1SC(C)(C)[C@@H]2C(=O)[O-].O.[Na+]`, more than 46 µM.
The result for `Cl.NNc1nncc2ccccc12` reads more than 46 µM; that for `CCC1NC(=O)c2cc(S(N)(=O)=O)c(Cl)cc2N1` (stereo unspecified), more than 46 µM; that for `COc1ccc(C(=O)/C(Br)=C\C(=O)O)cc1`, more than 46 µM.
In turn, `CCNC(C)Cc1cccc(C(F)(F)F)c1` (stereo unspecified) came in with an IC50 of more than 46 µM.
For `CC(=O)Nc1c(I)cc(I)c(C(=O)O)c1I` the value was more than 46 µM.
In the case of `CC(=O)[C@H]1CC[C@H]2[C@@H]3CC[C@H]4C[C@H](O)CC[C@]4(C)[C@H]3C(=O)C[C@]12C`, the half-maximal inhibitory concentration (IC50) is more than 46 µM.
For `CN(C)CCOC(c1ccc(Cl)cc1)c1ccccn1.O=C(O)/C=C\C(=O)O` (stereo unspecified) the value was more than 46 µM; for `C/C1=C2N=C(/C=C3N=C(/C(C)=C4\[N]([Co+][CH2][C@H]5O[C@@H](n6cnc7c(N)ncnc76)[C@H](O)[C@@H]5O)C(C(CC(N)=O)C4(C)CCC(=O)NCC(C)OP(=O)([O-])O[C@H]4[C@@H](O)[C@@H](n5cnc6cc(C)c(C)cc65)O[C@@H]4CO)C4(C)N=C1C(CCC(N)=O)C4(C)CC(N)=O)C(CCC(N)=O)C\3(C)C)C(CCC(N)=O)C/2(C)CC(N)=O` (stereo partly specified), more than 46 µM; for `Cc1cccn2c(=O)c(-c3nnn[n-]3)cnc12.[K+]`, more than 46 µM.
In turn, `C[C@](N)(Cc1ccc(O)c(O)c1)C(=O)O.C[C@](N)(Cc1ccc(O)c(O)c1)C(=O)O.O.O.O` yielded an IC50 of more than 46 µM.
For `CC(=O)Oc1cccc2c1C(=O)c1c(OC(C)=O)cc(C(=O)O)cc1C2=O` the value was more than 46 µM; for `Cl.NCC(O)c1cccc(O)c1` (stereo unspecified), more than 46 µM.
The result for `NC(=S)NS(=O)(=O)c1ccc(N)cc1` reads more than 46 µM.
In turn, `CC[C@H]1OC(=O)[C@H](C)[C@@H](O[C@H]2C[C@@](C)(OC)[C@@H](O)[C@H](C)O2)[C@H](C)[C@@H](O[C@@H]2O[C@H](C)C[C@H](N(C)C)[C@H]2O)[C@](C)(O)C[C@@H](C)C(=O)[C@H](C)[C@@H](O)[C@]1(C)O` showed an IC50 of more than 46 µM.
With `N#CN`, the IC50 is more than 46 µM.
As for `OC[C@H]1O[C@@H](O[C@H]2[C@H](O)[C@@H](O)[C@H](O)O[C@@H]2CO)[C@H](O)[C@@H](O)[C@@H]1O`, the IC50 is more than 46 µM.
For the molecule `FC(F)OC(F)(F)C(F)Cl` (stereo unspecified), the IC50 is more than 46 µM.
The result for `CC1=CC[C@@H](CC1)[C@@](O)(C)CC\C=C(/C)C` reads more than 46 µM.
On to `O=C([O-])c1cc2cc(Cc3cccnc3)ccc2o1.[Na+]`, for which the IC50 is more than 46 µM.
Regarding `CC(c1cc2ccccc2s1)N(O)C(N)=O` (stereo unspecified), the IC50 is more than 46 µM.
In the case of `O=C(NC(O)C(Cl)(Cl)Cl)NC(O)C(Cl)(Cl)Cl` (stereo unspecified), the IC50 was more than 46 µM.
For `[H][C@]13[C@](O3)([H])[C@@H]2CC(OC(C(C4=CC=CS4)(C5=CC=CS5)O)=O)C[C@H]1[N@@+](C)2C.[Br-]` (stereo partly specified) the value was more than 46 µM; for `c1ccc2c(c1)Nc1ccccc1S2`, more than 46 µM.
The result for `CCCCCCCCCCCCCC(=O)OC(C)C` reads more than 46 µM.
In the case of `CCCC(=O)O[C@]1(C(=O)COC(C)=O)CC[C@H]2[C@@H]3C[C@H](F)C4=CC(=O)C=C[C@]4(C)[C@@]3(F)[C@@H](O)C[C@@]21C`, the IC50 was more than 46 µM.
For `CCN(CC)CCOC(=O)C1(c2ccccc2)CCCC1.CCN(CC)CCOC(=O)C1(c2ccccc2)CCCC1.O=S(=O)(O)CCS(=O)(=O)O` the value was more than 46 µM; for `O=C(C)O[C@@H]([C@H]4[N@@+]6(CCCCC6)C)[C@](CC5)(C)[C@](C4)([H])[C@@]3([H])[C@@]5([H])[C@@]2(C)C[C@@H]([C@@H](OC(C)=O)C[C@@]([H])2CC3)N1CCCCC1.[Br-]`, more than 46 µM.
For `Cc1ncc(CNC(=O)N(CCCl)N=O)c(N)n1` the value was more than 46 µM; for `O=C(NCCN1CCOCC1)c1ccc(Cl)cc1`, more than 46 µM; for `O=[N+]([O-])c1cccc(S(=O)(=O)NCCNS(=O)(=O)c2cccc([N+](=O)[O-])c2)c1`, more than 46 µM.
In the case of `CCn1cc(C(=O)O)c(=O)c2cc3c(cc21)OCO3`, the IC50 was more than 46 µM.
In the case of `NC(Cc1ccc(Cl)cc1)C(=O)O` (stereo unspecified), the IC50 was more than 46 µM.
For `C(=Cc1ccccc1)CN1CCN(C(c2ccccc2)c2ccccc2)CC1` the value was more than 46 µM; for `CC(C)(C)NCC(O)c1cc(Cl)c(N)c(C(F)(F)F)c1.Cl` (stereo unspecified), more than 46 µM; for `CC(=O)Nc1ccc(OC(=O)c2ccccc2OC(C)=O)cc1`, more than 46 µM.
Regarding `CCC1(CC)C(=O)NC(=O)N(C)C1=O`, the IC50 is more than 46 µM.
For `CCCCCCOc1ccccc1C(N)=O`, the IC50 is more than 46 µM.
The result for `O=C1N(c2ccccc2)c2ccccc2C1(Cc1ccncc1)Cc1ccncc1` reads more than 46 µM.
For `CNC(C)C(O)c1ccc(O)cc1.Cl` (stereo unspecified), the IC50 is more than 46 µM.
The molecule `Cc1cc(NS(=O)(=O)c2ccc(N)cc2)no1` displayed an IC50 of more than 46 µM.
Molecule `COc1ccc(C[C@@H](C)NC[C@H](O)c2ccc(O)c(NC=O)c2)cc1.COc1ccc(C[C@@H](C)NC[C@H](O)c2ccc(O)c(NC=O)c2)cc1.O=C(O)/C=C/C(=O)O` returned an IC50 of more than 46 µM.
In turn, `COc1cc(NS(=O)(=O)c2ccc(N)cc2)nc(OC)n1` registered an IC50 of more than 46 µM.
The result for `NC(=O)CS(=O)C(c1ccccc1)c1ccccc1` (stereo unspecified) reads more than 46 µM; that for `CCn1nc(C(=O)O)c(=O)c2cc3c(cc21)OCO3`, more than 46 µM; that for `CCCCC[C@H](O)/C=C/[C@H]1[C@H](O)CC(=O)[C@@H]1C/C=C\CCCC(=O)O`, more than 46 µM.
`O=C(CO)[C@@H](O)[C@H](O)[C@@H](O)C(=O)[O-].O=C(CO)[C@@H](O)[C@H](O)[C@@H](O)C(=O)[O-].[Ca+2]` gave a concentration for half-maximal inhibition (IC50) of more than 46 µM.
For `CCCN(CCC)S(=O)(=O)c1ccc(C(=O)O)cc1` the value was more than 46 µM.
Molecule `O=C1OC(OC(=O)c2cccnc2Nc2cccc(C(F)(F)F)c2)c2ccccc21` (stereo unspecified) registered an IC50 of more than 46 µM.
For `CC(=O)NC[C@H]1CN(c2ccc(N3CCOCC3)c(F)c2)C(=O)O1` the value was more than 46 µM; for `CN(C(=O)CCCOc1ccc2[nH]c(=O)ccc2c1)C1CCCCC1`, more than 46 µM.
For `O=C3N1/C(=C(\CS[C@@H]1[C@@H]3NC(=O)Cc2cccs2)C[n+]4ccccc4)C([O-])=O` the value was more than 46 µM; for `Cc1ccc(S(=O)(=O)NC(=O)NC2CCCCC2)cc1`, more than 46 µM; for `O=C(O)C[CH2][Ge](=[O])[O][Ge](=[O])[CH2]CC(=O)O`, more than 46 µM.
In the case of `O=[C@](O)[C@@H]2CC1=C(CN2C([C@H](C)N[C@@H](CCC3=CC=CC=C3)[C@](OCC)=O)=O)C=C(OC)C(OC)=C1.Cl`, the IC50 was more than 46 µM.
In turn, `O=C3N1/C(=C(/C)CS[C@@H]1[C@@H]3NC(=O)[C@H](N)c2ccc(O)cc2)C(O)=O` registered an IC50 of more than 46 µM.
For the molecule `Cc1c(OCC(F)(F)F)ccnc1CS(=O)c1nc2ccccc2[nH]1` (stereo unspecified), the concentration for half-maximal inhibition (IC50) was more than 46 µM.
Molecule `C[C@H]1CC[C@]2(NC1)O[C@H]1C[C@H]3[C@@H]4CC[C@H]5C[C@@H](O)CC[C@]5(C)[C@H]4CC[C@]3(C)[C@H]1[C@@H]2C.Cl` registered an IC50 of more than 46 µM.
The result for `CCN(CC)CCCC(C)Nc1ccnc2cc(Cl)ccc12.O=P(O)(O)O.O=P(O)(O)O` (stereo unspecified) reads more than 46 µM; that for `Cl.NCc1ccc(S(N)(=O)=O)cc1`, more than 46 µM.
For `CCSc1ccc2c(c1)N(CCCN1CCN(C)CC1)c1ccccc1S2.O=C(O)CC(O)C(=O)O.O=C(O)CC(O)C(=O)O` the value was more than 46 µM; for `CCC1(CC)C(=O)C=CNC1=O`, more than 46 µM.
The result for `CON=C(C(=O)N[C@@H]1C(=O)N2C(C(=O)[O-])=C(CSc3nc(C)c(CC(=O)[O-])s3)CS[C@H]12)c1csc(N)n1.[Na+].[Na+]` reads more than 46 µM; that for `O=C(O)CCCCC1CCSS1` (stereo unspecified), more than 46 µM.
Turning to `O=[C@@](OCC2=CC=CC(OC3=CC=CC=C3)=C2)[C@H]1C(C)(C)C1/C=C(C)/C` (stereo partly specified), the IC50 is more than 46 µM.
The result for `C=C[C@H]1CN2CCC1C[C@@H]2[C@@H](O)c1ccnc2ccccc12` (stereo partly specified) reads more than 46 µM; that for `CCOc1ccc(S(=O)(=O)O)c2cccnc12`, more than 46 µM.
For `O=C2N1[C@]([C@@]([H])2NC(C3=C(C)ON=C3C(C(Cl)=CC=C4)=C4F)=O)([H])SC(C)(C)[C@@H]1[C@@]([O-])=O.[Na+]` the value was more than 46 µM; for `Cc1oc(=O)oc1CN1CCN(c2cc3c(cc2F)c(=O)c(C(=O)O)c2n3C(C)S2)CC1` (stereo unspecified), more than 46 µM; for `Cl.Clc1ccc(Cn2c(CN3CCCC3)nc3ccccc32)cc1`, more than 46 µM.
On to `CCCCCCCCCCCCCCCC(=O)OC[C@H](COP(=O)([O-])OCC[N+](C)(C)C)OC(=O)CCCCCCCCCCCCCCC`, for which the IC50 was more than 46 µM.
For `CC[N+](CC)(CC)CCC(O)(c1ccccc1)C1CCCCC1.[Cl-]` (stereo unspecified) the value was more than 46 µM; for `CCNC(=O)/C=C/c1cccc(Br)c1`, more than 46 µM.
For `CS(=O)(=O)c1ccc(C2=C(c3ccccc3)C(=O)OC2)cc1` the value was more than 46 µM.
The molecule `C#C[C@]1(O)CC[C@H]2[C@@H]3CCC4=CC(=O)CC[C@@H]4[C@H]3CC[C@@]21CC` came in with an IC50 of more than 46 µM.
The result for `NC(=O)NNc1ccccc1` reads more than 46 µM.

As a reminder, the IC50 is the concentration that inhibits the measured activity by half.
